These results are taken from patent publication US7638320B2, “Bengamide derivatives, process for preparing them, and their use” (sanofi-aventis Deutschland GmbH, priority 2003, dated 2009).

Data set [1] concerns Hep-G2 (ATCC No. HB-8065) tumor cell line. The data set can be described thus: Cell proliferation test (intracellular ATP, CellTiterGlo) on Hep-G2. To be noted: read-out: Activity in a cell proliferation test, expressed as TC50 value, Hep-G2. It counts as cell-based. The method, then:
(§1) A test which is based on determining the intracellular concentration of ATP is employed for detecting the inhibition of cell proliferation. It is possible to use known tumor cell lines such as Hep-G2 and Colo205. In this test, the ATP content of metabolically active cells serves, in a luciferase reaction, as a measure of the number of living cells.
(§2) The compounds of the formula (II)-(VI) were used in the test in a single dose of 0.3-40 μM and a dose dependency given as a TC50 value, with (IIA) and (IIB) in each case denoting a diastereomer of the compound of the formula (II): […]
(§3) The tumor cell lines Hep-G2 (ATCC No. HB-8065) and COLO 205 (ATCC No. CCL-222) were used for determining the cell proliferation. The cell lines were sown in cell culture medium at the rate of 1000 cells/well [Hep-G2] and, respectively, 3500 cells/well [Colo205] and incubated for 4 hours at 37° C. and 5% CO2.
Medium for Hep-G2: Dulbecco's modified Eagle's medium/Ham's F12 mix (Gibco); NEAA (10%; nonessential amino acids, Gibco), sodium pyruvate (1%, Gibco), L-glutamine (1%, Gibco), fetal calf serum (5%; PAA)].
(§4) After 4 hours, compounds (II), (III) and (IV) and bengamides E and F, dissolved in DMSO/cell culture medium, were added at various dilutions and the mixtures were incubated for 72 hours at 37° C. and 5% CO2. The intracellular content of ATP was determined using the test reagent CellTiterGlo (Promega).

The test system of data set [2] is COLO 205 (ATCC No. CCL-222) tumor cell line. The data set can be described thus: Cell proliferation test (intracellular ATP, CellTiterGlo) on COLO 205. It counts as cell-based. The note with it: read-out: Activity in a cell proliferation test, expressed as TC50 value, Colo 205. The method, then: as §1, §2, §3
Medium for COLO 205: RPMI 1640 (Gibco), L-glutamine (1%, Gibco), HEPES (1%, Gibco), fetal calf serum (10%, PAA).
as §4

In data set [3] the test system is eukaryotic cells, nematodes and bacteria. To be noted: Adamczewski et al., J. Org. Chem. 1986; cited from earlier work.
The subject of another data set is cell proliferation. To be noted: stops cell division at the G1/S restriction point and in the G2/M phase; cited from earlier work.
[4] abbreviates: Colo 205, 72 hours incubation, ATP content, tested at 0.3-40 μM.

Like-named read-outs stand apart in the source and are kept apart here.

Consider `CCC(C)/C=C/C(O)C(O)C(O)[C@@H](OC)C(=O)N[C@H]1CCC(O)CNC1=O` (stereo partly shown) [(IV)], for which the TC50 (50% inhibition of cell proliferation) in data set [1] (Homo sapiens, HepG2, 72 h) was above 40 µM. Besides, the CC50 in data set [2] (setting [4]) amounted to 42 µM.
Turning to `CO[C@@H](C(=O)N[C@H]1CCCCN(C)C1=O)[C@H](O)[C@@H](O)[C@H](O)/C=C/C(C)C` [Bengamide F], in data set [1] (Hep-G2, 72 hours incubation, ATP content, tested at 0.3-40 μM), the TC50 (50% inhibition of cell proliferation) turned out to be 27 µM. Also, the CC50 in data set [2] (setting [4]) is 33 µM.
With `CCC(C)/C=C/C(O)C(O)C(O)[C@@H](OC)C(=O)N[C@H]1CCCCNC1=O` (stereo partly shown) [Compound (II)], the TC50 (50% inhibition of cell proliferation) in data set [1] (Homo sapiens, HepG2, 72 h) was 16 µM. The CC50 in data set [2] (Homo sapiens, COLO 205, 72 h) stood at 27 µM.
Take `CCC(C)/C=C/C(O)C(O)C(O)[C@@H](OC)C(=O)N[C@H]1CCCCN(C)C1=O` (stereo partly shown) [(III)]: the TC50 (50% inhibition of cell proliferation) in data set [1] (Homo sapiens, HepG2, 72 h) is 9 µM. Besides, in data set [2] (Homo sapiens, COLO 205, 72 h), the CC50 was 15 µM.
Take `CCCCCCCCCCCCCC(=O)O[C@H]1CC[C@H](NC(=O)[C@H](OC)[C@H](O)[C@@H](O)[C@H](O)/C=C/C(C)C)C(=O)N(C)C1` [Bengamide B]: the “Biotoxicity to eukaryotic cells, nematodes and bacteria” value in data set [3] is reported as “biotoxic”.
For `CCCCCCCCCCCCCC(=O)O[C@H]1CC[C@H](NC(=O)[C@H](OC)[C@H](O)[C@@H](O)[C@H](O)/C=C/C(C)C)C(=O)NC1` [Bengamide A], the “Biotoxicity to eukaryotic cells, nematodes and bacteria” value in data set [3] is reported as “biotoxic”.
In the case of `CO[C@@H](C(=O)N[C@H]1CCCCNC1=O)[C@H](O)[C@@H](O)[C@H](O)/C=C/C(C)C` [Bengamide E], the TC50 (50% inhibition of cell proliferation) in data set [1] (Homo sapiens, HepG2, Hep-G2, 72 hours incubation, ATP content, tested at 0.3-40 μM) is 36 µM. Also, the CC50 in data set [2] (setting [4]) is on record as 46 µM. Moreover, the “Inhibition of cell proliferation” value in the data set with cell proliferation was “inhibits cell proliferation”.
